Results on two compounds are retold here after US11629341B2, “Method for producing selenoneine” (KIKKOMAN CORPORATION, priority 2015, dated 2023).

The subject of one data set is E. coli. Kind of data set: main culture of transformed E. coli in TY medium containing selenocystine. The following applies: TY++ line: 0.1 mM selenocystine present during the initial stage of culture, 25° C. It is filed as cell-based. On the procedure:
In a 19 ml test tube, each of the bacterial strains shown in Table 13 was inoculated into 2.5 ml of a TY medium. The inoculated medium was then seed-cultured at 37° C. for 16 hours while agitated at 180 rpm. In a 19 ml test tube, 20 μl of the seed culture was inoculated into 2.5 ml of a TY medium containing ampicillin and 0.5 mM IPTG. The inoculated medium was then main-cultured at 25° C. for 20.5 hours while agitated at 180 rpm. Three different lines of TY medium were prepared for the main culture: a TY medium containing 0.1 mM selenocystine (TY++), a TY medium containing 0.01 mM selenocystine (TY+), and a TY medium to which selenocystine was added to 0.01 mM six hours after the start of culture (TY+∘).
In addition, the amount of selenoneine produced by the (EcEgtA+EcEgtC) transformant was higher than that of the EcEgtA transformant and the difference between the two transformants was more significant in the culture supernatants.

The conditions of data set [1]: compared with ergothioneine; cited from earlier work.

Turning to `N[C@@H](C[Se][Se]C[C@H](N)C(=O)O)C(=O)O` [selenocystine], the growth inhibition result in the data set on E. coli is given as “caused growth inhibition”.
Regarding `C[N+](C)(C)[C@@H](Cc1cnc([Se-])[nH]1)C(=O)O` [selenoneine], in data set [1], the “antioxidant activity relative to ergothioneine” value was 1,000 times.
